Measured values: ChEMBL document CHEMBL5376011, “Discovery of Anti-Hypercholesterolemia Agents Targeting LXRα from Marine Microorganism-Derived Natural Products” (J Nat Prod, 2024)
Activity calls are given as the source filed them.

Assays:
HepG2 [1] = experiment: Improvement of lipid metabolism in palmitic acid and oleic acid induced human HepG2 cell model of hepatic steatosis assessed as reduction in total cellular cholesterol level at 25 uM preincubated with palmitic acid and oleic acid for 48 hrs followed by compound addition and measured after 24 hrs; format: functional, cell-based
Mus musculus [2] = experiment: Antihypercholesterolemic activity against high cholesterol diet fed LXRalpha knockout C57BL/6J mouse assessed as improvement in hepatic steatosis at 300 microg/kg, ip administered every 2 days for 15 days by H&E staining based analysis; format: functional, organism-based; conditions: dose 300.0 µg/kg, time 15.0 day
Mus musculus [3] = experiment: Antihypercholesterolemic activity against high cholesterol diet induced C57BL/6J mouse assessed as reduction in serum alanine aminotransferase level at 300 microg/kg, ip administered every 2 days for 15 days; format: functional, organism-based; conditions: dose 300.0 µg/kg, time 15.0 day
Mus musculus [4] = experiment: Antihypercholesterolemic activity against high cholesterol diet fed LXRalpha knockout C57BL/6J mouse assessed as improvement in hepatic steatosis at 300 microg/kg, ip administered every 2 days for 15 days by Oil red staining based analysis; format: functional, organism-based; conditions: dose 300.0 µg/kg, time 15.0 day
Mus musculus [5] = experiment: Antihypercholesterolemic activity against high cholesterol diet fed C57BL/6J mouse assessed as reduction of fine vacuoles in the cytoplasm at 300 microg/kg, ip administered every 2 days for 15 days by Oil red staining based analysis; format: functional, organism-based; conditions: dose 300.0 µg/kg, time 15.0 day
Mus musculus [6] = experiment: Antihypercholesterolemic activity against high cholesterol diet fed LXRalpha knockout C57BL/6J mouse assessed as reduction in serum triglycerides level at 300 microg/kg, ip administered every 2 days for 15 days; format: functional, organism-based; conditions: dose 300.0 µg/kg, time 15.0 day
Mus musculus [7] = experiment: Antihypercholesterolemic activity against high cholesterol diet fed LXRalpha knockout C57BL/6J mouse assessed as reduction in serum aspartate aminotransferase level at 300 microg/kg, ip administered every 2 days for 15 days; format: functional, organism-based; conditions: dose 300.0 µg/kg, time 15.0 day
Mus musculus [8] = experiment: Antihypercholesterolemic activity against high cholesterol diet fed C57BL/6J mouse assessed as reduction in degree of hepatic steatosis at 300 microg/kg, ip administered every 2 days for 15 days by H&E staining based analysis; format: functional, organism-based; conditions: dose 300.0 µg/kg, time 15.0 day
Mus musculus [9] = experiment: Antihypercholesterolemic activity against high cholesterol diet fed C57BL/6J mouse assessed as reduction in hepatocyte lysis necrosis at 300 microg/kg, ip administered every 2 days for 15 days by H&E staining based analysis; format: functional, organism-based; conditions: dose 300.0 µg/kg, time 15.0 day
Mus musculus [10] = experiment: Antihypercholesterolemic activity against high cholesterol diet fed C57BL/6J mouse assessed as reduction in SCD1 protein level at 300 microg/kg, ip administered every 2 days for 15 days by Western blot analysis; format: functional, organism-based; conditions: dose 300.0 µg/kg, time 15.0 day
[11] = target: T1, Oxysterols receptor LXR-alpha (Homo sapiens) (UniProt Q13133); experiment: Agonist activity at LXRalpha in human HepG2 cells assessed as upregulation of CYP7A1 protein expression level at 25 uM incubated for 24 hrs by Western blot analysis; format: cell-based; conditions: filed as agonist
T1 sequence (whole entry): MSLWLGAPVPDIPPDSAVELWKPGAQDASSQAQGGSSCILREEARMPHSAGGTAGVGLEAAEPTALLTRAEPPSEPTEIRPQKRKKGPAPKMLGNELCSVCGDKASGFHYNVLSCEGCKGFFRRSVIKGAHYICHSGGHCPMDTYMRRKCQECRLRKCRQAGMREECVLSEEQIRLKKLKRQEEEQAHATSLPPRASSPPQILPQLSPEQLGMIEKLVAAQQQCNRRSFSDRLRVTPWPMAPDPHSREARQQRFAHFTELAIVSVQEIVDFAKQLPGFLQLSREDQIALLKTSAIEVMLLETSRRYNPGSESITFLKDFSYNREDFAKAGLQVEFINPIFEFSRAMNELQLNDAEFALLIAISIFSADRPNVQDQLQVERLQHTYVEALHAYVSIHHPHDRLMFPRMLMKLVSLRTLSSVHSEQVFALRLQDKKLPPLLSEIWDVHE

HepG2 [12] = experiment: Effect on ABCG1 mRNA expression in human HepG2 cells at 25 uM incubated for 24 hrs by RT-qPCR analysis; format: functional, cell-based
[13] = target: T1, Oxysterols receptor LXR-alpha (Homo sapiens); experiment: Agonist activity at LXRalpha in human HepG2 cells assessed as upregulation of ABCA1 protein expression level at 25 uM incubated for 24 hrs by Western blot analysis; format: cell-based; conditions: filed as agonist
Mus musculus [14] = experiment: Antihypercholesterolemic activity against high cholesterol diet fed LXRalpha knockout C57BL/6J mouse assessed as reduction in serum total cholesterol level at 300 microg/kg, ip administered every 2 days for 15 days; format: functional, organism-based; conditions: dose 300.0 µg/kg, time 15.0 day
Mus musculus [15] = experiment: Antihypercholesterolemic activity against high cholesterol diet fed C57BL/6J mouse assessed as improvement in hepatocyte liposis at 300 microg/kg, ip administered every 2 days for 15 days by Oil red staining based analysis; format: functional, organism-based; conditions: dose 300.0 µg/kg, time 15.0 day
Mus musculus [16] = experiment: Antihypercholesterolemic activity against high cholesterol diet fed LXRalpha knockout C57BL/6J mouse assessed as reduction in serum high density lipoprotein cholesterol level at 300 microg/kg, ip administered every 2 days for 15 days; format: functional, organism-based; conditions: dose 300.0 µg/kg, time 15.0 day
Mus musculus [17] = experiment: Antihypercholesterolemic activity against high cholesterol diet fed LXRalpha knockout C57BL/6J mouse assessed as upregulation in CYP7A1 protein level at 300 microg/kg, ip administered every 2 days for 15 days by Western blot analysis; format: functional, organism-based; conditions: dose 300.0 µg/kg, time 15.0 day
Mus musculus [18] = experiment: Antihypercholesterolemic activity against high cholesterol diet fed LXRalpha knockout C57BL/6J mouse assessed as improvement in liver lipid droplet accumulation at 300 microg/kg, ip administered every 2 days for 15 days by H&E staining based analysis; format: functional, organism-based; conditions: dose 300.0 µg/kg, time 15.0 day
Mus musculus [19] = experiment: Antihypercholesterolemic activity against high cholesterol diet fed C57BL/6J mouse assessed as reduction in degree of hepatic steatosis at 300 microg/kg, ip administered every 2 days for 15 days by Oil red staining based analysis; format: functional, organism-based; conditions: dose 300.0 µg/kg, time 15.0 day
Mus musculus [20] = experiment: Antihypercholesterolemic activity against high cholesterol diet induced C57BL/6J mouse assessed as reduction in plasma low-density lipoprotein cholesterol level at 300 microg/kg, ip administered every 2 days for 15 days; format: functional, organism-based; conditions: dose 300.0 µg/kg, time 15.0 day
Mus musculus [21] = experiment: Antihypercholesterolemic activity against high cholesterol diet fed C57BL/6J mouse assessed as improvement in hepatocyte degeneration at 300 microg/kg, ip administered every 2 days for 15 days by Oil red staining based analysis; format: functional, organism-based; conditions: dose 300.0 µg/kg, time 15.0 day

Measured: Activity

COc1ccc2c3c([nH]c2c1)[C@H](C=C(C)C)N1C(=O)[C@@H]2CCCN2C(=O)[C@]1(O)[C@H]3O
inactive: Mus musculus [6] | Mus musculus [7] | HepG2 [12] | Mus musculus [14] | Mus musculus [16] | Mus musculus [17]
active: all other assays above
